Data: US20240083900A1, “PYRAZOLO[1,5-A]PYRAZINE DERIVATIVES AS BTK INHIBITORS” (BIOGEN MA INC., priority 2020, published 2024)
Where two headings read alike, the source gives them in different places.

Columns and labels:
[1] = target: BTK (Homo sapiens (Human), UniProt Q06187); test: In Vitro BTK Kinase Assay: Btk-PolyGAT-LS Assay; type: biochemical; conditions: BTK enzyme 0.25 nM, ATP 10 μM, polyGAT 100 nM, 30 minutes incubation, TRF readout; read-out: IC50
Procedure, shortened: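 Human BTK activity was measured with final 10 μM ATP and 100 nM polyGAT substrate in pH 7.5 Tris buffer with 10 mM MgCl2, DTT, Triton X-100 and casein.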

[2] = system: CD69 expression on CD19+ B cells in human whole blood stimulated with anti-human IgD; test: In Vitro whole blood CD69 Assay; type: cell-based
[3] = Homo sapiens, B-cell, human heparinized whole blood, anti-human IgD stimulation overnight, percentage of CD19+ B cells expressing CD69, flow cytometry, read-out: IC50
[4] = human heparinized whole blood, anti-human IgD stimulation overnight, percentage of CD19+ B cells expressing CD69, flow cytometry, read-out: IC50

Sequence of BTK (Q06187 whole entry): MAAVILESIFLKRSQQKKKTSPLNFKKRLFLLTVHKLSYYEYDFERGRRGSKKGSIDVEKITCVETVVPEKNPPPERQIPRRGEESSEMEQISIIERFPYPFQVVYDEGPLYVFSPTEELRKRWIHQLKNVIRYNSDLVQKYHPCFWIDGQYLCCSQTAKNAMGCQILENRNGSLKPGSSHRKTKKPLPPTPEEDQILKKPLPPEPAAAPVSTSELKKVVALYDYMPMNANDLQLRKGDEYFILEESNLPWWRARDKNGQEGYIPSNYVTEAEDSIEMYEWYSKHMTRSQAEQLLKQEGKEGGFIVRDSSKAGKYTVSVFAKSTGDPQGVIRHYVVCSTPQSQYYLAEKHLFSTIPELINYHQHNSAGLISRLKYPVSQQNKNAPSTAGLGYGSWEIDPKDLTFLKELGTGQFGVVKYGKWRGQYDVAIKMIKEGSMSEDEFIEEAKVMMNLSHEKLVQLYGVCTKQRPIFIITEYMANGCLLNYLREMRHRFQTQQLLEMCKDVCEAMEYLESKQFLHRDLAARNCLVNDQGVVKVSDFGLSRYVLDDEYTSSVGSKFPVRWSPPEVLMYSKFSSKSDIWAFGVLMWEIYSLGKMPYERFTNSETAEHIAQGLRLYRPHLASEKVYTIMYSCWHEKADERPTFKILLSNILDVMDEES

SMILES	IC50 [1] [nM]	IC50 [2, 3] [nM]	IC50 [2, 4] [nM]	IC50 ([2]; Homo sapiens, B-cell) [nM]
C=CC(=O)N1CCCC[C@H](Oc2nc(-c3cnn(C)c3)cn3nccc23)C1 [Example 55, (S)-1-(3-((6-(1-methyl-1H-pyrazol-4-yl)pyrazolo[1,5-a]pyrazin-4-yl)oxy)azepan-1-yl)prop-2-en-1-one]	10 to 1000	> 10000	–	–
C=CC(=O)N1CCCC[C@@H](Oc2nc(-c3cnn(C)c3)cn3nccc23)C1 [Example 56, 1-[(3R)-3-[6-(1-methylpyrazol-4-yl)pyrazolo[1,5-a]pyrazin-4-yl]oxyazepan-1-yl]prop-2-en-1-one]	1 to 10	> 10000	–	–
C=CC(=O)N1CCCC(Oc2nc(-c3cnn(C)c3)cn3ncnc23)CC1 (stereo not drawn) [Example 57, 1-(4-((6-(1-methyl-1H-pyrazol-4-yl)-[1,2,4]triazolo[1,5-a]pyrazin-8-yl)oxy)azepan-1-yl)prop-2-en-1-one]	1 to 10	1000 to 10000	–	–
C=CC(=O)N1CCOC[C@H](Oc2nc(-c3cnn(C)c3)cn3nccc23)C1 [Example 58, (R)-1-(6-((6-(1-methyl-1H-pyrazol-4-yl)pyrazolo[1,5-a]pyrazin-4-yl)oxy)-1,4-oxazepan-4-yl)prop-2-en-1-one]	10 to 1000	> 10000	–	–
C=CC(=O)N1CCC[C@@H](Oc2nc(-c3cnn(C)c3)cn3ncc(C#N)c23)CC1 [Example 59, (R)-4-((1-acryloylazepan-4-yl)oxy)-6-(1-methyl-1H-pyrazol-4-yl)pyrazolo[1,5-a]pyrazine-3-carbonitrile]	< 1	< 1000	–	–
C=CC(=O)N(C)[C@H]1C[C@H](Oc2nc(-c3cnn(C)c3)cn3ncc(C)c23)C1 [Example 60, N-methyl-N-((trans)-3-((3-methyl-6-(1-methyl-1H-pyrazol-4-yl)pyrazolo[1,5-a]pyrazin-4-yl)oxy)cyclobutyl)acrylamide]	< 1	> 10000	–	–
C=CC(=O)N1CCC[C@@H](Oc2nc(-c3cnn(C)c3)cn3ncc(F)c23)CC1 [Example 61, 1-[(4R)-4-[3-fluoro-6-(1-methylpyrazol-4-yl)pyrazolo[1,5-a]pyrazin-4-yl]oxyazepan-1-yl]prop-2-en-1-one]	< 1	< 1000	–	–
C=CC(=O)N1CCC[C@@H](Oc2nc(-c3cnn(C)c3)cn3ncc(C(F)(F)F)c23)CC1 [Example 62, 1-[(4R)-4-[6-(1-methylpyrazol-4-yl)-3-(trifluoromethyl)pyrazolo[1,5-a]pyrazin-4-yl]oxyazepan-1-yl]prop-2-en-1-one]	1 to 10	1000 to 10000	–	–
C=CC(=O)N(C)[C@H]1C[C@@H](Oc2nc(-c3cnn(C)c3)cn3ncc(F)c23)C1 [Example 63, N-((cis)-3-((3-fluoro-6-(1-methyl-1H-pyrazol-4-yl)pyrazolo[1,5-a]pyrazin-4-yl)oxy)cyclobutyl)-N-methylacrylamide]	< 1	> 10000	–	–
C=CC(=O)N(C)[C@H]1C[C@H](Oc2nc(-c3cnn(C)c3)cn3ncc(C(F)F)c23)C1 [Example 64, N-((trans)-3-((3-(difluoromethyl)-6-(1-methyl-1H-pyrazol-4-yl)pyrazolo[1,5-a]pyrazin-4-yl)oxy)cyclobutyl)-N-methylacrylamide]	1 to 10	< 1000	–	–
C=CC(=O)N1CCC[C@@H](Oc2cc(-c3cnn(C)c3)cn3nccc23)CC1 [Example 66, 1-[(4R)-4-[6-(1-methylpyrazol-4-yl)pyrazolo[1,5-a]pyridin-4-yl]oxyazepan-1-yl]prop-2-en-1-one]	< 1	< 1000	–	–
C=CC(=O)N1CCC[C@@H](Oc2nc(-c3cnn(C)c3)cn3nc(N)cc23)CC1 [Example 67, 1-[(4R)-4-[2-amino-6-(1-methylpyrazol-4-yl)pyrazolo[1,5-a]pyrazin-4-yl]oxyazepan-1-yl]prop-2-en-1-one]	< 1	< 1000	–	–
C=CC(=O)N1CCC[C@@H](Oc2nc(-c3cn(C)nc3C)cn3ncnc23)CC1 [Example 70, 1-[(4R)-4-[[6-(1,3-dimethylpyrazol-4-yl)-[1,2,4]triazolo[1,5-a]pyrazin-8-yl]oxy]azepan-1-yl]prop-2-en-1-one]	1 to 10	1000 to 10000	–	–
C=CC(=O)N1CCOCC1CCOc1cc(-c2cnn(C)c2)cn2nccc12 (stereo not drawn) [Example 81, 1-(3-(2-((6-(1-methyl-1H-pyrazol-4-yl)pyrazolo[1,5-a]pyridin-4-yl)oxy)ethyl)morpholino)prop-2-en-1-one]	1 to 10	1000 to 10000	–	–
CC#CC(=O)N1CC2(C1)CC(C)(Oc1nc(-c3cnn(C)c3)cn3ncc(F)c13)C2 [Example 86, 1-(6-((3-fluoro-6-(1-methyl-1H-pyrazol-4-yl)pyrazolo[1,5-a]pyrazin-4-yl)oxy)-6-methyl-2-azaspiro[3.3]heptan-2-yl)but-2-yn-1-one]	1 to 10	< 1000	–	–
CC#CC(=O)N(C)[C@H]1CCC[C@@H](Oc2nc(-c3cnn(C)c3)cn3ncc(F)c23)C1 [Example 92, N-((1S,3R)-3-((3-fluoro-6-(1-methyl-H-pyrazol-4-yl)pyrazolo[1,5-a]pyrazin-4-yl)oxy)cyclohexyl)-N-methylbut-2-ynamide]	< 1	1000 to 10000	–	–
CN(C)C/C=C/C(=O)N(C)[C@H]1CCC[C@@H](Oc2nc(-c3cnn(C)c3)cn3ncc(F)c23)C1 [Example 93, (E)-4-(dimethylamino)-N-((1S,3R)-3-((3-fluoro-6-(1-methyl-1H-pyrazol-4-yl)pyrazolo[1,5-a]pyrazin-4-yl)oxy)cyclohexyl)-N-methylbut-2-enamide]	1 to 10	< 1000	–	–
CC#CC(=O)N[C@H]1CC[C@@H](Oc2nc(-c3cnn(C)c3)cn3ncc(F)c23)C1 [Example 95, N-((1S,3R)-3-((3-fluoro-6-(1-methyl-1H-pyrazol-4-yl)pyrazolo[1,5-a]pyrazin-4-yl)oxy)cyclopentyl) but-2-ynamide]	< 1	< 1000	–	–
C=CC(=O)NC12CCC(Oc3nc(-c4cnn(C)c4)cn4nccc34)(C1)C2 [Example 98, N-(4-((6-(1-methyl-1H-pyrazol-4-yl)pyrazolo[1,5-a]pyrazin-4-yl)oxy)bicyclo[2.1.1]hexan-1-yl)acrylamide]	< 1	1000 to 10000	–	–
CC#CC(=O)N(C)C12COCC(Oc3nc(-c4cnn(C)c4)cn4nccc34)(C1)C2 [Example 100, N-methyl-N-(5-((6-(1-methyl-1H-pyrazol-4-yl)pyrazolo[1,5-a]pyrazin-4-yl)oxy)-3-oxabicyclo[3.1.1]heptan-1-yl)but-2-ynamide]	< 1	< 1000	–	–
C=CC(=O)N(C1CC1)[C@H]1C[C@@H](Oc2nc(-c3cnn(C)c3)cn3nccc23)C1 [Example 101, N-cyclopropyl-N-((cis)-3-((6-(1-methyl-1H-pyrazol-4-yl)pyrazolo[1,5-a]pyrazin-4-yl)oxy)cyclobutyl)acrylamide]	< 1	1000 to 10000	–	–
C=CC(=O)N(C)[C@H]1C[C@](Oc2nc(-c3cnn(C)c3)cn3nccc23)(C2CC2)C1 [Example 103, N-((1s,3s)-3-cyclopropyl-3-((6-(1-methyl-1H-pyrazol-4-yl)pyrazolo[1,5-a]pyrazin-4-yl)oxy)cyclobutyl)-N-methylacrylamide]	1 to 10	–	1000 to 10000	–
C=CC(=O)N(C)[C@H]1C[C@@](Oc2nc(-c3cnn(C)c3)cn3nccc23)(C2CC2)C1 [Example 104, N—((1r,3r)-3-cyclopropyl-3-((6-(1-methyl-1H-pyrazol-4-yl)pyrazolo[1,5-a]pyrazin-4-yl)oxy)cyclobutyl)-N-methylacrylamide]	10 to 1000	–	1000 to 10000	–
C=CC(=O)N1CC2(Oc3nc(-c4cnn(C)c4)cn4nccc34)CC1(C)C2 [Example 124, 1-(1-methyl-4-((6-(1-methyl-1H-pyrazol-4-yl)pyrazolo[1,5-a]pyrazin-4-yl)oxy)-2-azabicyclo[2.1.1]hexan-2-yl)prop-2-en-1-one]	1 to 10	–	–	1000 to 10000
C=CC(=O)NC12CCC(Oc3nc(-c4cnn(C)c4)cn4nccc34)(CC1)C2 [Example 125, N-(4-((6-(1-methyl-1H-pyrazol-4-yl)pyrazolo[1,5-a]pyrazin-4-yl)oxy)bicyclo[2.2.1]heptan-1-yl)acrylamide]	1 to 10	1000 to 10000	–	–
C=CC(=O)N1CC2CC(C1)C2COc1nc(-c2cnn(C)c2)cn2nccc12 (stereo not drawn) [Example 126, 1-(6-(((6-(1-methyl-1H-pyrazol-4-yl)pyrazolo[1,5-a]pyrazin-4-yl)oxy)methyl)-3-azabicyclo[3.1.1]heptan-3-yl)prop-2-en-1-one]	< 1	< 1000	–	–
C=CC(=O)N1C[C@H]2C[C@@H](C1)[C@@H]2COc1nc(-c2cnn(C)c2)cn2nccc12 [Example 127, 1-((1R,5S,6r)-6-(((6-(1-methyl-1H-pyrazol-4-yl)pyrazolo[1,5-a]pyrazin-4-yl)oxy)methyl)-3-azabicyclo[3.1.1]heptan-3-yl)prop-2-en-1-one]	< 1	–	1000 to 10000	–
C=CC(=O)N1C[C@H]2C[C@@H](C1)[C@H]2COc1nc(-c2cnn(C)c2)cn2nccc12 [Example 128, 1-((1R,5S,6s)-6-(((6-(1-methyl-1H-pyrazol-4-yl)pyrazolo[1,5-a]pyrazin-4-yl)oxy)methyl)-3-azabicyclo[3.1.1]heptan-3-yl)prop-2-en-1-one]	< 1	–	< 1000	–
C=CC(=O)N(C)c1ccc(F)c(Oc2nc(-c3cnn(C)c3)cn3nccc23)c1 [Example 130, N-(4-fluoro-3-((6-(1-methyl-1H-pyrazol-4-yl)pyrazolo[1,5-a]pyrazin-4-yl)oxy)phenyl)-N-methylacrylamide]	1 to 10	1000 to 10000	–	–
C=CC(=O)N(CC(F)F)[C@H]1CC[C@@H](Oc2nc(-c3cnn(C)c3)cn3nccc23)C1 [Example 146, N-(2,2-difluoroethyl)-N-((1S,3R)-3-((6-(1-methyl-1H-pyrazol-4-yl)pyrazolo[1,5-a]pyrazin-4-yl)oxy)cyclopentyl)acrylamide]	< 1	< 1000	–	–
